Results from US20230355557A1, “ANTIVIRAL SOX INHIBITORS” (Gertrude Biomedical Pty LTD, priority 2020, published 2023).

How the values were obtained:
Type in all cases: cell-based
[1] = tested on: Kaposi sarcoma herpesvirus (KSHV); experiment: KLEC genome copy number assay in KSHV-infected primary human dermal lymphatic endothelial cells; conditions: KSHV-infected LECs, 6 days
Procedure: The relative expression of KSHV from control was quantified and single values from n=3 technical replicates are shown. Bars represent mean + SD. P values were calculated using a 2-way ANOVA (left) and ordinary one way-ANOVA (right) followed by Dunnett’s multiple comparison test.
(§1) KSHV-infected cells were incubated with the indicated inhibitor at the concentrations stated in the Figure panels for six days prior to analysis. HeLa cells were incubated with the indicated inhibitor at the concentrations stated in the Figure panels for 24 hours prior to analysis.
Primary human dermal lymphatic (C-12216) endothelial cells (LECs) were purchased from Promocell and grown in Lonza EBM-2 (00190860) supplemented with EGMTM-2 MV Microvascular Endothelial SingleQuotsTM(CC-4147). Cell from passage 1-3 were used.
rKSHV.219 was produced from iSLK.219 cells reactivated using 0.2 µg/ml doxycycline and 1.35 mM NaB for 72 h. Supernatant was harvested, spun down (2000 rpm 5 min) and sterile filtered using […] pore-size filters. Subsequently the supernatant was ultracentrifuged at 22000 rpm for 2 h. The concentrated virus was then aliquoted and stored at -80° C.
Equal number of LECs were seeded into 6-well assay-plates and incubated at 37° C. & 5% CO2 until 80% confluency. After reaching confluency, LECs were infected with rKSHV.219 and incubated at 37° C. & 5% CO2 for 3 days, making sure that the cell density remained similar. Cell were subsequently mixed at a 2:3 ratio with uninfected LECs for 2 days. Once GFP expression and cell spindling was observed the culture medium was replaced with medium containing the experimental compounds with 0.25% DMSO (v/v) at concentrations from 0.1 uM to 50 uM. After 3 days of incubation, the cells were replenished with new medium containing experimental compounds and incubated for 3 more days.
After compound incubation, cells were collected and genomic and viral DNA was extracted using the NucleoSpin Tissue Kit (Macherey-Nagel, 740952) following the kit’s standard protocol. qPCR was subsequently completed (SYBR Green, ThermoFisher K0222) in triplicates using primers for viral K8.1 and Human genomic actin. K8.1 forward primer: […] (SEQ ID NO:1); reverse primer: […] (SEQ ID NO:2). Genomic acid forward primer: […] (SEQ ID NO:3); reverse primer: […] (SEQ ID NO:4).
A KLEC assay was used to examine the ability of the compounds to inhibit viral copy number in virus infected primary human dermal lymphatic endothelial cells (LECs).

SOX18 [2] = target: T1, SOX18 (Mus musculus, UniProt P43680); experiment: VCAM-1 luciferase reporter assay in COS-7 cells transfected with Vcam-1 promoter construct and SOX18; conditions: VCAM-1 promoter luciferase, 24 hr compound incubation, % of maximal signal without compound
T1 construct: expressed in transfected cells; host or cells: COS-7 (monkey kidney fibroblast-like cells)
T1 sequence (P43680 1-377): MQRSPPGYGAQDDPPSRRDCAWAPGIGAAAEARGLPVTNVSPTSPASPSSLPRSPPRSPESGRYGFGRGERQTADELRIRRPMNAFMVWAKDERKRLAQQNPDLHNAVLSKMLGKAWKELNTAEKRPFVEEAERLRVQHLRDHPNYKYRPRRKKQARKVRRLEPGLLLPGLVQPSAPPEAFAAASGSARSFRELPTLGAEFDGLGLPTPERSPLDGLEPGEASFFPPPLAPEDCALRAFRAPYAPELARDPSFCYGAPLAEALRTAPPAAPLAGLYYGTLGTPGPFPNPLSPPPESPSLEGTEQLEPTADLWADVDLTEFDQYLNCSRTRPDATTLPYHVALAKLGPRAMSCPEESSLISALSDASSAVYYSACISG
Procedure: Monkey kidney fibroblast-like cells (COS-7) were cultured at 37° C. and 5% CO2 in DMEM (Life Technologies, 11995) with fetal bovine serum (FBS), sodium pyruvate, L-glutamine, penicillin, streptomycin, non-essential amino acids, and HEPES. Cells were grown in 96-well plates to 80% confluence and transfected with mouse plasmids pGL2 Vcam-1 promoter construct (VC1889) and pReceiver M49 SOX18, using X-tremeGENE HP DNA transfection reagent (Roche, 6366236001). After 4 hr of transfection, cells were incubated with compounds in 0.5% FBS medium for another 24 hr, before lysis and luciferase assay (Perkin Elmer, 6016711). Results are presented as %inhibition of the maximal signal observed in cells transfected with VCAM-1 and SOX18 without compound incubation.
The second assay measured the interaction between SOX18 and the VCAM-1 promoter (Hosking et al., (2004) J Biol. Chem. 297:5314-5322). […] Without wishing to be bound by theory, it is understood that viral infection can induce an inflammatory response of endothelial cells, the latter being a result of VCAM-1 gene expression which is regulated by SOX18 activity (Huber J. (1994) J Virol. 68(6):3453-8). Put another way, the expression of VCAM-1 is driven by SOX18 so upon virus infection, SOX18 binds to the VCAM promoter and induces expression of VCAM.
The compounds described in Table 2 were tested by the VCAM-1 luciferase reporter assay. The results are shown in Table 2 under the column %inhibition of SOX18.

SOX18 [3] = target: T2, SOX18 (Homo sapiens, UniProt P35713); experiment: SOX18 luciferase reporter assay (7XTR and OriA reporters) in HeLa cells; conditions: HeLa cells transfected with SOX18 and 7xTR or OriA reporter, 24 hours treatment (FIG. 2)
T2 construct: expressed in transfected cells; host or cells: HeLa
T2 sequence (P35713 1-384): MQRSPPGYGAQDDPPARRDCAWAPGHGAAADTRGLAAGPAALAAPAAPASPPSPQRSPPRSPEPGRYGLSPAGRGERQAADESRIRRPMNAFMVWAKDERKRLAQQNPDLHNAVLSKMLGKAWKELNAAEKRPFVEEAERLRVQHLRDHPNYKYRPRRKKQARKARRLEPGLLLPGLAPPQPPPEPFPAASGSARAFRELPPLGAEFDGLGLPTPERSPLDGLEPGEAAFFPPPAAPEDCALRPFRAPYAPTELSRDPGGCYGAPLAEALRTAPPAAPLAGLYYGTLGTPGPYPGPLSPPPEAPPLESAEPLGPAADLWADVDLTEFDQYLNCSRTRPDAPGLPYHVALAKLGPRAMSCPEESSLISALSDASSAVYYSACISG
Procedure: Luciferase signal was quantified and single values from n=3 technical replicates are shown. Data points represent mean + SD. P values were calculated using a 2-way and ordinary one way ANOVA followed by Dunnett’s multiple comparison test.
as §1
HeLa cells were cultured in DMEM containing 10% FCS, 1% L-glutamine and 1% pen/strep at 37° C. & 5% CO2. Cells were seeded at a density of 7000 cells per well in 125 µL of the maintenance medium in a 96-well format for 24 hours.
Plasmids were transfected using FuGENE HD Transfection Reagent (Promega E2311) (1:4 DNA to reagent ratio) and Opti-MEM (ThermoFisher 31985062). OriA-luc negative control and experimental wells contained 25 ng OriA-luc plasmid and 10 ng SOX18 plasmid per well, positive control contained 25 ng OriA-luc plasmid and 10 ng mCherry plasmid per well. 7XTR-luc negative control and experimental wells contained 50 ng 7XTR-luc plasmid and 20 ng SOX18 plasmid per well, positive control contained 50 ng 7XTR-luc plasmid and 20 ng mCherry plasmid per well. Cell were incubated for 18 hours before cells were replenished with new medium containing experimental compounds and incubated for 24 hours.
Luminescence was measured by adding an equal volume of Steady-Glo reagent to cells at room temperature and luminescence was quantified using the FLUOstar plate reader (BMG Labtech, FLUOstar Omega; 4 sec intervals per well).
Activation of these genes was measured using HeLa cells that were transfected with luciferase-reporters harbouring either seven copies of the TR (7XTR) or the OriA promoter fused to OriLyt upstream of an SV40 promoter and a firefly luciferase reporter. ORF, that binds to the OriLyt and is a potent activator of this reporter (Chen J et al., (2009) Virology 386:290-302) was used as a positive control. […]

%inhibition of Sox18 (SOX18 [2]) [%]	SMILES	other results
54.02	O=C(O)c1c(O)cc(Cl)cc1CCc1ccc2ccccc2c1 [GB019, 4-chloro-2-hydroxy-6-(2-(naphthalen-2-yl)ethyl)benzoic acid]	
96.7	Cc1cc(O)c(C(=O)O)c(CCc2ccc3ccccc3c2)c1 [GB012, 2-hydroxy-4-methyl-6-(2-(naphthalen-2-yl)ethyl)benzoic acid]	
49.66	COC(=O)c1c(O)cccc1/C=C/c1ccccc1 [GB026, methyl (E)-2-hydroxy-6-styrylbenzoate]	
48.31	COC(=O)c1c(O)cccc1CCc1ccc(Cl)cc1 [GB028, methyl 2-(4-chlorophenethyl)-6-hydroxybenzoate]	
25.32	COc1ccc(CCc2cccc(OC)c2C(=O)O)cc1 [GB005, 2-methoxy-6-(4-methoxyphenethyl)benzoic acid]	
47.43	COc1cccc(CCc2cccc3ccccc23)c1C(=O)O [GB027, 2-methoxy-6-(2-(naphthalen-1-yl)ethyl)benzoic acid]	
19.33	COc1cccc(COCc2ccc3ccccc3c2)c1C(=O)O [GB006, 2-methoxy-6-((naphthalen-2-ylmethoxy)methyl)benzoic acid]	
49.18	O=C(O)c1c(O)cccc1CCc1ccccc1 [GB003, 2-hydroxy-6-phenethylbenzoic acid]	
67.19	COc1cc(O)c(C(=O)O)c(CCc2ccc3ccccc3c2)c1 [GB025, 2-hydroxy-4-methoxy-6-(2-(naphthalen-2-yl)ethyl)benzoic acid]	

SMILES	%inhibition of Sox18 (SOX18 [2]) [%]	other results
O=C(O)c1c(O)cccc1CCc1ccc2ccccc2c1 [GB001, 2-hydroxy-6-(2-(naphthalen-2-yl)ethyl)benzoic acid]	99.10	reduction in KSHV genome copy number (fold change) ([1]; 10 µM): Significant reduction in genome copy number; reduction in KSHV genome copy number (fold change) ([1]; 50 µM): Significant reduction in genome copy number; interference with SOX18-mediated gene transcription (luciferase signal) (SOX18 [3]): interferes with SOX18-mediates gene transcription
COc1cccc(/C=C/c2ccc3ccccc3c2)c1C(=O)O [GB002, (E)-2-methoxy-6-(2-(naphthalen-2-yl)vinyl)benzoic acid]	30.78	reduction in KSHV genome copy number (fold change) ([1]; 50 µM): Significant reduction in genome copy number; interference with SOX18-mediated gene transcription (luciferase signal) (SOX18 [3]): interferes with SOX18-mediates gene transcription
O=C(O)c1c(O)cccc1CCc1ccc(Cl)cc1Cl [GB004, 2-(2,4-dichlorophenethyl)-6-hydroxybenzoic acid]	48.26	reduction in KSHV genome copy number (fold change) ([1]; 5 µM): Significant reduction in genome copy number; interference with SOX18-mediated gene transcription (luciferase signal) (SOX18 [3]): interferes with SOX18-mediates gene transcription
